US9290427B2, “Anti-invasive compounds” (Universiteit Gent, priority 2012, dated 2016)
“And” between values parts separate entries of the source, which are not always exact repeats. Equal entries are not always repeated.

Columns and labels:
[1] = tested on: BLM cells; experiment: Matrigel invasion assay; type: cell-based; settings: for Number of invasive BLM-cells found at the basolateral side of the filter: 24 h, samples 1 and 2
Excerpt: An interesting method to determine the invasive capacity of cells and the anti-invasive potential of different substances is the matrigel invastion assay. Matrigel can be considered to be a basal membrane and is obtained from mice EHS sarcomas (tumors having an abundant expression of extracellular matrix proteins). The primary component of a matrigel is laminin, further also including collagen IV, heparan, sulphate proteoglycans and growth factors. It is also important that matrix degrading enzymes and inhibitors are present.
At room temperature, matrigel polymerizes into a matrix which mimicks a basal membrane of breast cells. The behavior of cells towards a matrigel highly resembles the in vivo situation and therefore this test is acknowledged to be an appropriate approach to the study migration and invasion, and the role of ECM receptors and matrix degrading enzymes in these processes.
In particular for this example, test cells were placed on a matrigel layer in serum-free medium. Subsequently, said cells were allowed to invade into the matrigel layer upon which they move through a filter, and attach to the bottom of said filter. The migration of the cells is stimulated by the presence of conditioned medium, at the other side of the filter, which act as a chemoattractant for the cells.
50 μl matrigel (+/−3 mg/ml serum-free DMEM) was applied in the apical compartment (upper chamber) of 24-well plate inserts having a pore size of 8 μm. After 1 h of polymerization (37° C.) 50.000 BLM cells (in 150 μl serum-free DMEM) were seeded and incubated with varying concentrations of compound 49 (0-100 μM). In the basolateral compartment (lower chamber), 700 μl conditioned medium, containing the same concentration of compound 49 as used in the apical compartment was applied as a chemo-attractant for the cells. The plates were incubated for 24 h at 37° C. and the matrigel and cells at the apical side were removed using wetted cotton swabs (PBSD-). The filters were washed twice on both sides with PBSD- and subsequently incubated for 10 min in ice-cold methanol to fix the cells. To quantify the number of migrated cells, the filters were incubated for 15 min with DAPI and subsequently washed 4×5 min with PBSD-. The filters were then mounted on coverslips and the number of migrated cells was determined for each concentration of compound 49 using a fluorescence microscope.

[2] = tested on: MCF-7/LucF5 cells; experiment: SRB test, MCF-7/LucF5; type: cell-based, human
Method: (§1) The SRB assay is used to evaluate growth effects on cells, and measures the total protein content. In this test, 5,000 cells are seeded in a cup of a 96-well plate. Upon a 24 h-attachment period, cells are treated with a certain amount of the test molecule (dissolved in DMSO). After a pre-chosen incubation time, cells are fixed with 50 μL of 50% trichloroacetic acid (2° C., 1 h). Afterward, the plate is rinsed five times with tap water, and air dried overnight.
(§2) Next, proteins are stained with 75 μL of a 0.4% solution of SRB in AcOH (30 min). Unbound SRB is subsequently removed by washing with a 1% solution of glacial AcOH, whereupon the plate is air dried. Then, bound SRB is redissolved in 100 μL of a 10 mmol·L^−1 tris(hydroxymethyl)aminomethane (Tris) buffer (pH=10.5), after which optical density is determined at 490 nm with a spectrophotometer.
(§3) In order to further validate the use of the MCF-7/LucF5 cells in our in vivo experiments, the effects of 4-fluoro-3′,4′,5′-trimethoxychalcone on this cell line in the MTT and SRB assays were determined as well (Van Hoorde L. et al., 1999).

[3] = tested on: MCF-7/LucF5 cells; experiment: MTT test, MCF-7/LucF5; type: cell-based, human
Method: An MTT test provides an indication of cell viability, proliferation and activity through determination of the mitochondrial conversion of 3-(4,5-dimethylthiazol-2-yl)-2,5-diphenyltetrazolium bromide (MTT), a yellow salt, into formazan, a salt that precipitates under the form of blue crystals.
In concreto, 5,000 cells are seeded in a cup of a 96 well-plate, treated with the desired amount of the test substance, and incubated for a chosen period of time. Next, 40 μL of a filtered (0.2 μm) 5 mg·mL^−1 solution of MTT in PBS is added to the cup. After 2 h of incubation at 37° C. in the dark, all liquid is removed. The obtained formazan salts are dissolved in 200 μL of DMSO, whereupon optical density is measured at 490 nm.
as §3

[4] = tested on: HCT8-E11 colon carcinoma cells; experiment: SRB test, HCT8-E11; type: cell-based, human
Method: as §1, §2
In order to verify whether the antiproliferative effects of compound 49, witnessed in BLM and MCF-7/6 cells at high concentrations, were cell specific, additional SRB and MTT assays on a further five cell lines (HCT8-E11, TR146, FaDu, 3T3-L1 and CT5.3) were conducted (FIG. 8). The results for MCF-7/6 cells were added to facilitate comparison.
The CT5.3 cell line consists of human myofibroblasts which were isolated from a colon tumor (Van Hoorde et al., 1999). […]

[5] = tested on: BLM melanoma cells; experiment: SRB test, BLM; type: cell-based
Method: as §1, §2
As 4-fluoro-3′,4′,5′-trimethoxychalcone had exerted an anti-invasive activity on BLM melanoma cells in the Matrigel invasion assay, we were intrigued to verify how its effect on the viability of BLM cells would compare to that observed for the MCF-7 cell lines.

[6] = elevated concentrations 10-100 μmol·L−1, summary

COc1cc(C(=O)/C=C/c2ccc(F)cc2)cc(OC)c1OC [Compound 49, (2E)-3-(4-Fluorophenyl)-1-(3,4,5-trimethoxyphenyl)propenone]
reduction of the number of invasive cells ([1]; 0.1 μM): 80%
reduction of the number of invasive cells ([1]; 1 μM): 67%
Number of invasive BLM-cells found at the basolateral side of the filter ([1]; 1 μM): 282 and 160
reduction of the number of invasive cells ([1]; 10 μM): 93%
Number of invasive BLM-cells found at the basolateral side of the filter ([1]; 10 μM): 57 and 33
reduction of the number of invasive cells ([1]; 100 μM): 98%
cell count ([2]; 1 and 0.1 μmol·L−1, 72 h (p=0.0703 and 0.0538)): marginally significant reduction
total protein content ([2]; 100 or 10 μmol·L−1, 72 h (p=0)): significant reduction
reduction in total protein content [2, 6]: ~50%
mitochondrial activity ([3]; 0.1 μmol·L−1, 72 h (p=0.0196)): significant reduction
viability (mitochondrial activity) ([3]; 0.1 μmol·L−1, 144 h): restoration of viability to the control level
mitochondrial activity ([3]; 100 and 10 μmol·L−1, 72 and 144 h): significant reduction
reduction in mitochondrial activity [3, 6]: ~50%
change in total protein content ([4]; 10 μmol·L−1, 24 h, decreasing trend, not significant): −27%
reduction in total protein content [4, 6]: ~50%
reduction in total protein content ([5]; 0.1 μmol·L−1, 24 h): no effect was apparent
change in total protein content ([5]; 10 μmol·L−1, 24 h, significant reduction): −20%
reduction in total protein content ([5]; 1 and 10 μmol·L−1, 24 h (p<0.01)): 20%
